According to US20120157401A1, “METHODS FOR TREATING NEUROFIBROMATOSIS” (PTC Therapeutics, Inc., priority 2009, published 2012):
Marks after values point to notes of the source that are not given here.

How the values were obtained:
[1] = system: normal human keratinocyte; assay: ATP viability assay in keratinocytes; type: cell-based; settings: any concentration tested
Description: Experimental Design. Nontransformed normal human keratinocyte cell cultures were established under normoxic conditions (21% oxygen). […] At the completion of treatment, cells were assessed for viability with an ATP assay and conditioned media were evaluated for VEGF protein levels by ELISA (as described in Section 9.1.1.1).

Human VEGF-A = assay: HT1080 xenograft selectivity studies: intratumoral VEGF-A ELISA; type: in vivo; settings: Study 5, 15-days, treatment initiated at ~600 mm^3
Excerpt: Experimental Design. […] All of these factors can be produced at tumor sites, and all may support tumor growth and metastases. See Yoon et al., Circ Res. 2003, 93(2):87 90; Ferrara et al., Nat. Rev. Drug Discov. […] Biophys. Acta 2004,1654(1):79 94; Saharinen et al., Trends Immunol. 2004, 25(7):387 95. There is also evidence that VEGF-A may stimulate production of P1GF by a post transcriptional mechanism. See Yao et al., FEBS Lett. 2005, 579(5):1227 34. VEGF-B was not assessed. […] See Vagner at al., Mol. Cell. Biol. 1995, 15(1):35 44; Hellen et al., Genes Dev. 2001, 15(13):1593 612. The survivin protein was similarly evaluated because the survivin mRNA has an IRES. PDGF was assessed because this protein has angiogenic activity and its mRNA contains an IRES. See Sella et al., Mol. Cell. Biol. 1999, 19(8):5429 40; Hellen et al., supra. Endostatin was included because antiangiogenic treatment in vivo has shown that compensatory […] in endogenous angiogenic inhibitors such as endostatin, thrombospondin, and angiostatin, results in a more pro angiogenic environment. See Sim, Angiogenesis, 1998, 2(1):37-48.
In all of these experiments, HT1080 cells (5×10^6 cells/mouse) were implanted subcutaneously in male athymic nude mice. When tumors had become established, mice were divided into groups (10 mice/group). […] Tumor size was measured by calipers at the beginning and end of treatment. […]

MDA-MB-468 xenografts = assay: MDA-MB-468 estrogen-insensitive breast cancer xenograft: tumor growth; type: in vivo
Description: Tumor size was measured by calipers at periodic intervals. When the individual tumor size in a mouse exceeded 1500 mm^3, that mouse was sacrificed and both tumor and plasma were assayed for pathologic VEGF concentration as described in Section 9.1.1.1.

MDA MB 468 xenografts = assay: Tumor perfusion by DCE-MRI in MDA-MB-468 xenografts; type: in vivo, athymic nude mice; settings: 10 mg/kg oral QD
Excerpt: Experimental Design. Dynamic contrast-enhanced magnetic resonance imaging can be used preclinically and clinically to evaluate the anatomy of soft tissues, including the identification and accurate measurement of tumor volumes. In addition, evaluation of the intratumoral pharmacokinetics of contrast agents containing gadolinium can be used to measure vascular permeability characteristics. Coupling gadopentetate dimeglumine gadolinium to a […] like bovine serum albumin can reveal information about the necrotic (non-perfused) and non-necrotic (perfused) tumor volumes, and the percentage of vascular blood volume relative to the perfused tumor volume (known as the fractional blood volume [fBV]). Use of a […] tracer, gadopentetate dimeglumine, can reveal information regarding the volume transfer coefficient (K^trans), a variable that represents a combination of vascular permeability, vascular surface area, and blood flow.
Before each DCE-MRI scan, mice were injected intravenously with gadolinium-containing contrast dyes (bovine serum albumin-gadopentetate dimeglumine conjugate at ˜0.03 mmol/kg followed by gadopentetate dimeglumine at ˜0.2 mmol/kg). Baseline DCE-MRI measurements were taken on Day −1, test Compounds were administered on Day 0 through Day 5, and additional DCE-MRI measurements were taken on Days 1, 3, and 5. Image analyses were conducted with customized software. Total tumor volumes were measured by semi-automatically segmenting a region of interest around an anatomical image of the tumor. Tumor volumes of necrotic and non-necrotic tissues were measured by applying the same semi-automated segmentation process to a contrast dyed image. fBV and K^trans were computed using a standard Kety PK model.

[2] = system: SKNEP orthotopic xenografts; assay: Orthotopic SKNEP Ewing sarcoma tumor model (kidney capsule): tumor weight; type: in vivo, athymic nude mice; settings: 5 weeks of treatment
Excerpt: Experimental Design. In orthotopic tumor models, human tumor cells are implanted into the mouse in an organ that corresponds to the location from which the tumors arise. Such models may provide a better predictor of clinical efficacy than injection of tumors into the flanks of nude mice. See Hoffman, Invest. New Drugs 1999, 17(4):343-59. SY5Y neuroblastoma or SKNEP Ewing sarcoma tumor cells (1×10^6 cells/mouse) were implanted into the kidney capsule of female athymic nude mice according to published methods. See Huang et al., Proc. Natl. Acad. Sci. USA 2003, 100(13):7785-90. One week after implantation of each type of tumor, mice were divided into 2 groups and were administered a test Compound as shown in Table 21.
After 5 weeks of treatment, the mice were sacrificed, and the weights of the tumors were assessed.

[3] = molecular target: human-ether-a-go-go-related gene (hERG) current (Homo sapiens, UniProt Q12809); assay: Higher throughput hERG assay; type: cell-based
[4] = Oral pharmacokinetics / toxicokinetics in rats; type: in vivo, Sprague Dawley rats
Description: The pharmacokinetic evaluations in mice were adjuncts to the primary pharmacodynamic xenograft studies. The evaluations in rats included toxicokinetic assessments in single-dose, 7-day, and 28-day toxicology studies as well as a mass-balance study after a single oral dose of ^14C-Compound #10. The evaluations in dogs included toxicokinetic assessments in 7-day and 28-day toxicology studies. In the studies performed, rodents were dosed once daily with Compound #10 formulated in vehicle and administered via oral gavage.

CYP2D6 = molecular target: T1, CYP2D6 (Homo sapiens, UniProt P10635); assay: CYP inhibition in human hepatic microsomes / recombinant isoenzymes: CYP2D6; type: in vitro ADME; settings: human hepatic microsomes or recombinant isoenzymes
T1 construct: host or cells: human hepatic microsomes or recombinant isoenzyme (not distinguished)
Excerpt: (§1) It is possible that in certain clinical trial subjects, such agents may need to be adjusted for dosing or replaced by alternative agents that are not metabolized by CYP2D6, particularly when such agents may have a low therapeutic index.

CYP3A4 = molecular target: T2, CYP3A4 (Homo sapiens, UniProt P08684); assay: CYP inhibition: CYP3A4; type: in vitro ADME; settings: human hepatic microsomes or recombinant isoenzymes
T2 construct: host or cells: human hepatic microsomes or recombinant isoenzyme (not distinguished)
Excerpt: as §1

T47D xenografts = assay: T47D estrogen-sensitive breast cancer xenograft: tumor growth
Description: Experimental Design. Estrogen pellets (0.72 mg/pellet) were implanted 30 days prior to cell implantation and again 60 days later. T47D estrogen-sensitive breast cancer cells (5×10^6 cells/mouse mixed 1:1 with […] ™) were implanted subcutaneously in female athymic nude mice. […] Tamoxifen was included as a positive control.
Tumor size was measured by calipers at periodic intervals. After 74 days of treatment, the mice were sacrificed.

T1 sequence (P10635 whole entry): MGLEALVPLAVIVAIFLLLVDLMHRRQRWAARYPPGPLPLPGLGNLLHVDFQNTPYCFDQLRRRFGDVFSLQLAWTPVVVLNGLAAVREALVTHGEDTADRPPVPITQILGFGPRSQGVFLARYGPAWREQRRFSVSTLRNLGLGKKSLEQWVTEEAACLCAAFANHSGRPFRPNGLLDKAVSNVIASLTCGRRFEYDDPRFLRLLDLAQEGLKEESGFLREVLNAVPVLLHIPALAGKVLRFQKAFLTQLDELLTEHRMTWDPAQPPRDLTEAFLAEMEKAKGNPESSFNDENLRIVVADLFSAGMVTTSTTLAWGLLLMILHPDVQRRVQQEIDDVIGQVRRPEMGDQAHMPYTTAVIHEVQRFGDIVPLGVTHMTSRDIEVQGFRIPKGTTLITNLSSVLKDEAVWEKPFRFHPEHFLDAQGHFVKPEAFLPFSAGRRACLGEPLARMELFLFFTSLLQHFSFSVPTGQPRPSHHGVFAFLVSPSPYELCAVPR
Chain of human-ether-a-go-go-related gene (hERG) current (Q12809 whole entry): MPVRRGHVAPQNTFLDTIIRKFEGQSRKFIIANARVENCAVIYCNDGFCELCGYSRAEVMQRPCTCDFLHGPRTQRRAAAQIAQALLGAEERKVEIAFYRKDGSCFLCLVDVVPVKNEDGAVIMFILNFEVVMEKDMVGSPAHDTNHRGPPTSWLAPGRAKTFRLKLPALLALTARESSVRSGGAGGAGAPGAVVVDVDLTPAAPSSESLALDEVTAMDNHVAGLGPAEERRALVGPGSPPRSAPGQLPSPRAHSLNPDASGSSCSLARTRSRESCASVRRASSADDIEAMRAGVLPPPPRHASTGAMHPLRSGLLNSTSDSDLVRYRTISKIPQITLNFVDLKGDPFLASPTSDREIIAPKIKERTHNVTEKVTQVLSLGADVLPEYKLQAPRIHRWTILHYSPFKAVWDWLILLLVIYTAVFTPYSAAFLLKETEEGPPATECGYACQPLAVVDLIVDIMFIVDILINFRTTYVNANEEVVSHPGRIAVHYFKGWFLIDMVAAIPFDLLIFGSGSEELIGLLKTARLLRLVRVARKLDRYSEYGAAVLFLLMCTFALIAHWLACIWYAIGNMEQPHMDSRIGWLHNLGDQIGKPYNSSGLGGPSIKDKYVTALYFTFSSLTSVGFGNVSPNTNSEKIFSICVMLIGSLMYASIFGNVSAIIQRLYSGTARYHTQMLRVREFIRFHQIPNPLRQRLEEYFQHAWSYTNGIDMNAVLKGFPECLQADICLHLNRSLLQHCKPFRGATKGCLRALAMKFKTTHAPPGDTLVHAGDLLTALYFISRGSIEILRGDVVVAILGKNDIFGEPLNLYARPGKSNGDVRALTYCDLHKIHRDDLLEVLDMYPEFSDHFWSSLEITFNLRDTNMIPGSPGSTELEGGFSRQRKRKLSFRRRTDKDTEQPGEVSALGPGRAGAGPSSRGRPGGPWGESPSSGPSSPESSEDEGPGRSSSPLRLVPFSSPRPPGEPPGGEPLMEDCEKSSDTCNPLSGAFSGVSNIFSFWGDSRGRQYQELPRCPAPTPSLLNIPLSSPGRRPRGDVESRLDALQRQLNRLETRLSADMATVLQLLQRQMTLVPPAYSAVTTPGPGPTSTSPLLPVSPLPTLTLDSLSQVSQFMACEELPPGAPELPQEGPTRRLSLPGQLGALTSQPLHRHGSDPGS
T2 sequence (P08684 whole entry): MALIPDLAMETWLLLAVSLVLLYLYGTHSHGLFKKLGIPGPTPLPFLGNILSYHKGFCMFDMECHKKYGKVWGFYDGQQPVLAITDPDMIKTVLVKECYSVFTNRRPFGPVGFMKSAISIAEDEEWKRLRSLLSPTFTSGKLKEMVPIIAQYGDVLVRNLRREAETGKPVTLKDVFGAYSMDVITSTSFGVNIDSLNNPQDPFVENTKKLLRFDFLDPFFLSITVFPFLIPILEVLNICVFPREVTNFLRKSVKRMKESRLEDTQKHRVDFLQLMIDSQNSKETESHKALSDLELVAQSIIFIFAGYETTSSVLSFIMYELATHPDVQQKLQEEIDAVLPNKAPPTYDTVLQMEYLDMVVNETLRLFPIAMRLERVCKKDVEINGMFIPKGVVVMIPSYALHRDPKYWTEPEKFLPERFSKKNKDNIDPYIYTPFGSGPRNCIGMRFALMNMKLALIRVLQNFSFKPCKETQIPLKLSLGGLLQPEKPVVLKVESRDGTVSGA

COc1ccc(C2c3[nH]c4ccc(Cl)cc4c3CCN2C(=O)Oc2ccc(Cl)cc2)cc1 (racemic) [Compound #10]
Toxicity (ATP viability) [1]: No toxicity was observed
Decrease in intratumoral VEGF levels (Human VEGF-A): 78%
Mean % Inhibition of Tumor Size vs Vehicle at Day 12 (MDA-MB-468 xenografts; 10 mg/kg oral QD): 65* %
Median Time to Tumor Size ≧1000 mm^3 (MDA-MB-468 xenografts; 10 mg/kg oral QD): 25 days
Toxicity on observing the animals (MDA-MB-468 xenografts; MDA-MB-468 xenograft mice, 10 mg/kg QD): no evidence of toxicity
Change in mean tumor fBV in non-necrotic tissue (MDA MB 468 xenografts; Day 1 to Day 5): declined after Day 3
Change in mean K^trans in non-necrotic tissue (MDA MB 468 xenografts; Day −1 to Day 5): decreased
Change in mean necrotic tumor volume (MDA MB 468 xenografts; Day −1 to Day 5): rapidly increased
Change in mean non-necrotic tumor volume (MDA MB 468 xenografts; Day −1 to Day 5): decreased
Change in mean total tumor volume (MDA MB 468 xenografts; Day −1 to Day 5): little mean change
Growth of orthotopic SKNEP tumors (tumor weight) [2]: completely prevented growth
Inhibition of hERG current [3]: negative for meaningful inhibition
Oral bioavailability [4]: orally bioavailable
Inhibition of CYP2D6 isoenzyme activity (CYP2D6): inhibits the activity
Inhibition of CYP3A4 (CYP3A4): No meaningful inhibition
Mean % Inhibition of Tumor Size vs Vehicle at Day 74 (T47D xenografts; 10 mg/kg oral QD): 40%
Toxicity on observing the animals (T47D xenografts; T47D xenograft mice, 10 mg/kg QD, 74 days): no evidence of toxicity
